Measurements published in publication PMC9944328 (Nature Communications, 2023).
Read-outs that look alike come from different tables or passages of the source.

System: SSTR2 mutants
Assay: SSTRs Gi-mediated cAMP inhibition, GloSensor, HEK293, 5 μM forskolin, 15 min room temperature (SSTR2 mutants)
Assay type: cell-based, human
Procedure: The levels of the intracellular 3′, 5′-cyclic AMP (cAMP) were measured by the GloSensor cAMP assay (Promega) as described in the previous studies[28],[41] which has been widely used. The human full-length SSTRs and mutants were cloned into the pcDNA3.1+ vector with a HA signal sequence followed by a Flag tag at the N-terminus. HEK293 cells (ATCC, CRL-1573) were seeded into 6-well microplates at a density of 1.0 × 10^6 cells/well and cultured for 24 h at 37 °C with 5% CO2. Cells were then co-transfected with SSTR wild-type or mutants and GloSensor plasmids. After 24 h of transfection, the cells were dissociated with TrypLE™ Express Enzyme (1X) (Thermo Fisher Scientific) and collected by centrifugation at 500 × g for 5 min. Then the collected cells were suspended in Hank’s balanced salt solution [HBSS (Thermo Fisher Scientific)] supplemented with […] (YEASEN), and then the suspension cells were seeded into 96-well plates with 90 μl/well. After incubating at room temperature for 40 min, 5 μM forskolin and ligands diluted in HBSS were added to each well and the plates were incubated at room temperature for 15 min. […] were measured using the Synergy H1 microplate reader (BioTek) and the data presented are means of at least three independent experiments.

[1] = cAMP inhibition best-fit, F127A-1
[2] = cAMP inhibition best-fit, F127A-2
[3] = cAMP inhibition best-fit, F127A-3
[4] = cAMP inhibition best-fit, I130A-1
[5] = cAMP inhibition best-fit, I130A-2
[6] = cAMP inhibition best-fit, I130A-3
[7] = cAMP inhibition best-fit, Q102A-1
[8] = cAMP inhibition best-fit, Q102A-2
[9] = cAMP inhibition best-fit, Q102A-3
[10] = cAMP inhibition best-fit, V103A-1
[11] = cAMP inhibition best-fit, V103A-2
[12] = cAMP inhibition best-fit, V103A-3

SMILES: N#Cc1cccc(-c2ccc3ncc(-c4cc(F)cc(F)c4)c(N4CCC(N)CC4)c3c2)c1O [paltusotine]
- LogEC50 (best-fit value), cAMP inhibition (Y302A-1 (run 1)): -7.774
- Span (best-fit value), cAMP inhibition (Y302A-1 (run 1)): 45.84
- Top (best-fit value), cAMP inhibition (Y302A-1 (run 1)): 51.54
- Bottom (best-fit value), cAMP inhibition (Y302A-2 (run 2)): 6.053
- LogEC50 (best-fit value), cAMP inhibition (Y302A-2 (run 2)): -7.903
- Span (best-fit value), cAMP inhibition (Y302A-2 (run 2)): 53.55
- Top (best-fit value), cAMP inhibition (Y302A-2 (run 2)): 59.6
- Bottom (best-fit value), cAMP inhibition (Y302A-3 (run 3)): 6.125
- LogEC50 (best-fit value), cAMP inhibition (Y302A-3 (run 3)): -8.216
- Span (best-fit value), cAMP inhibition (Y302A-3 (run 3)): 50.13
- Top (best-fit value), cAMP inhibition (Y302A-3 (run 3)): 56.25
- Bottom [1]: 3.363
- EC50 [1]: 0.994 nM
- LogEC50 [1]: -9.003
- Span [1]: 99.71
- Top [1]: 103.1
- Bottom [2]: -15.5
- EC50 [2]: 0.816 nM
- LogEC50 [2]: -9.089
- Span [2]: 125.3
- Top [2]: 109.8
- Bottom [3]: 3.745
- EC50 [3]: 0.665 nM
- LogEC50 [3]: -9.177
- Span [3]: 105.4
- Top [3]: 109.1
- Bottom [4]: 11.53
- EC50 [4]: 17.8 nM
- LogEC50 [4]: -7.749
- Span [4]: 105
- Top [4]: 116.5
- Bottom [5]: 16.26
- EC50 [5]: 15.1 nM
- LogEC50 [5]: -7.822
- Span [5]: 108.4
- Top [5]: 124.7
- Bottom [6]: 6.76
- EC50 [6]: 23.9 nM
- LogEC50 [6]: -7.621
- Span [6]: 101.4
- Top [6]: 108.2
- EC50 [7]: 43.6 nM
- LogEC50 [7]: -7.36
- Span [7]: 102.2
- Top [7]: 104
- EC50 [8]: 28.2 nM
- LogEC50 [8]: -7.55
- Span [8]: 100.8
- Top [8]: 101.3
- EC50 [9]: 21.3 nM
- LogEC50 [9]: -7.671
- Span [9]: 85.31
- Top [9]: 86.48
- Bottom [10]: 9.955
- EC50 [10]: 90.2 nM
- LogEC50 [10]: -7.045
- Span [10]: 84.48
- Top [10]: 94.43
- Bottom [11]: -12.27
- EC50 [11]: 7.12 nM
- LogEC50 [11]: -8.147
- Span [11]: 105.2
- Top [11]: 92.96
- Bottom [12]: 15.94
- EC50 [12]: 1.5 nM
- LogEC50 [12]: -8.823
- Span [12]: 58.67
- Top [12]: 74.61
- EC50 (read-out: EC50 (best-fit value), cAMP inhibition, D295A-1 (run 1)): 16 nM
- EC50 (read-out: EC50 (best-fit value), cAMP inhibition, D295A-2 (run 2)): 15.9 nM
- EC50 (read-out: EC50 (best-fit value), cAMP inhibition, D295A-3 (run 3)): 18.1 nM
- EC50 (read-out: EC50 (best-fit value), cAMP inhibition, F272A-1 (run 1)): 17.7 nM
- EC50 (read-out: EC50 (best-fit value), cAMP inhibition, F272A-2 (run 2)): 26.7 nM
- EC50 (read-out: EC50 (best-fit value), cAMP inhibition, F272A-3 (run 3)): 145 nM
- EC50 (read-out: EC50 (best-fit value), cAMP inhibition, F294A-1 (run 1)): 3.57 nM
- EC50 (read-out: EC50 (best-fit value), cAMP inhibition, F294A-2 (run 2)): 4.21 nM
- EC50 (read-out: EC50 (best-fit value), cAMP inhibition, F294A-3 (run 3)): 0.15 nM
- EC50 (read-out: EC50 (best-fit value), cAMP inhibition, K291A-1 (run 1)): 4.34 nM
- EC50 (read-out: EC50 (best-fit value), cAMP inhibition, K291A-2 (run 2)): 1.48 nM
- EC50 (read-out: EC50 (best-fit value), cAMP inhibition, K291A-3 (run 3)): 6.95 nM
- EC50 (read-out: EC50 (best-fit value), cAMP inhibition, N276A-1 (run 1)): 0.993 nM
- EC50 (read-out: EC50 (best-fit value), cAMP inhibition, N276A-2 (run 2)): 2.19 nM
- EC50 (read-out: EC50 (best-fit value), cAMP inhibition, N276A-3 (run 3)): 1.77 nM
- EC50 (read-out: EC50 (best-fit value), cAMP inhibition, Y302A-1 (run 1)): 16.8 nM
- EC50 (read-out: EC50 (best-fit value), cAMP inhibition, Y302A-2 (run 2)): 12.5 nM
- EC50 (read-out: EC50 (best-fit value), cAMP inhibition, Y302A-3 (run 3)): 6.08 nM
- EC50 (read-out: EC50 (best-fit value), F208A-1 (run 1)): 14.9 nM
- EC50 (read-out: EC50 (best-fit value), F208A-2 (run 2)): 98.5 nM
- EC50 (read-out: EC50 (best-fit value), F208A-3 (run 3)): 79.3 nM
- EC50 (read-out: EC50 (best-fit value), F265A-1 (run 1)): 11.3 nM
- EC50 (read-out: EC50 (best-fit value), F265A-2 (run 2)): 14.7 nM
- EC50 (read-out: EC50 (best-fit value), F265A-3 (run 3)): 9.82 nM
- EC50 (read-out: EC50 (best-fit value), P220A-1 (run 1)): 3.5 nM
- EC50 (read-out: EC50 (best-fit value), P220A-2 (run 2)): 3.09 nM
- EC50 (read-out: EC50 (best-fit value), P220A-3 (run 3)): 3.08 nM
- EC50 (read-out: EC50 (best-fit value), W269A-1 (run 1)): 0.601 nM
- EC50 (read-out: EC50 (best-fit value), W269A-2 (run 2)): 0.503 nM
- EC50 (read-out: EC50 (best-fit value), W269A-3 (run 3)): 0.604 nM
- EC50 (read-out: EC50 (best-fit value), Y205A-1 (run 1)): 0.344 nM
- EC50 (read-out: EC50 (best-fit value), Y205A-2 (run 2)): 0.915 nM
- EC50 (read-out: EC50 (best-fit value), Y205A-3 (run 3)): 0.18 nM
